The nature of data set [1]: PAMPA (Parallel Artificial Membrane Permeability Assay), GIT model. The format is in vitro ADME. The source says:
The Parallel Artificial Membrane Permeability Assay (PAMPA) is used as an in vitro model of passive, transcellular permeation. PAMPA eliminates the added complexities of active transport, allowing ranking compounds just based on a simple membrane permeability property. This simple assay also allows evaluation of permeability over a large pH range, which is valuable for a preliminary understanding of how orally delivered compounds might be absorbed across the entire gastrointestinal tract. Depending upon the types of lipids used and other experimental conditions, PAMPA may be designed to model absorption in gastrointestinal tract (PAMPA-GIT), blood-brain barrier penetration (PAMPA-BBB) or skin penetration (Skin PAMPA).
All steps of the PAMPA were carried out according to pION Inc. PAMPA Explorer™ Manual. The main principle of the assay is the incubation of compound in donor chamber (a well in Donor Plate) with aqueous buffer, which is separated from acceptor chamber (a well in Acceptor Plate) with another buffer by a phospholipid or hydrocarbon membrane fixed on a filter support. After the test, concentrations in the corresponding donor and acceptor wells are measured and permeability is calculated.
GIT model was simulated using GIT-0 phospholipid mix. Verapamil and quinidine (high permeability) and ranitidine (low permeability) were used as reference compounds. All compounds were tested in triplicates.
Solutions of the test and reference compounds were added into the Donor Plate wells in Prisma HT buffer (pH 7.4). Acceptor Sink Buffer was added into each well of the Acceptor Plate. Incubation was done at room temperature for 4 hours without stirring. After incubation, aliquots from both plates were transferred to optic UV-Vis plates and optic plates were read on microplate reader in absorbance mode in the range of 202-500 nm with 4 nm step. Compounds with low UV-Vis signal were detected by LC-MS/MS method (API 3000 (PE Sciex)). Both the positive and negative ion modes of the TurboIonSpray ion source were used. Acquisition and analysis of the data were performed using Analyst 1.5.2 software (PE Sciex). The apparent permeability coefficient was calculated according to the equation shown below:
with: • VD=volume of transport buffer in donor compartment • A=surface area of the lipids in the insert (effective growth area of the insert—0.3 sq.cm) • t=time of the assay, seconds • Cdon=final concentration of test compound in the donor compartment • Cref=starting concentration of test compound in the donor compartment • εa=apparent filter porosity, equals to 0.76
[formula] • Cacc=final concentration of test compound in the […] compartment • τss=steady state lag time, estimated as (54RM+1)×60 s
Values of Cdon/Cref and Cacc/Cref are practically calculated using optical absorbance data. Mass retention by the lipid membrane is a normal condition in PAMPA assays for hydrophobic compounds but high levels of the mass retention makes compounds more permeable in vivo than it could be predicted from PAMPA assay. Mass retention was calculated as follows:
• [drug]acc=final OD of test compound in acceptor well • [drug]d=starting OD of test compound in a donor well • [drug]fd=final OD of test compound in a donor well

A short description of data set [2]: Metabolic stability in hepatocytes, rat. Type of data set: in vitro ADME. The note with it: hepatocytes (cryopreserved), read-out: Rat Clint (μL/min/10^6 cells). On the procedure: The aim of this assay is to determine the metabolic stability of the compound in hepatocytes (cryopreserved) of different species (mouse CD1, rat Sprague Dawley, dog Beagle). Low hepatocyte stability may result in the formation of unwanted metabolites, high clearance, and therefore is not desirable. The decrease in parent was assessed by measuring the percentage remaining by LC-MS/MS analysis. The batches of hepatocytes were tested for quality control using Testosterone, Umbelliferone and Caffeine as reference compounds.
A 10 mM stock solution of test compound in DMSO was first diluted in DMSO to 3 mM, and then in modified Krebs-Henseleit buffer (Sigma, K3753) to 5 μM. This compound dilution was added to a suspension of pooled cryopreserved hepatocytes (BioIVT) at 37° C. under gentle shaking. Final reaction conditions were: 1 μM of test compound, <0.1% DMSO, 0.5 million viable hepatocytes/mL, and 75 μL incubation volume.
After 0, 10, 20, 45, 90, 120 and 180 min of incubation, the reaction was terminated with 3 volumes of MeCN:MeOH (2:1) containing diclofenac as analytical internal standard. Samples were mixed, centrifuged and the supernatant analyzed by LC-MS/MS (systems API4000). The instrument responses (ratios of test compound and internal standard peak areas) were referenced to the zero time point samples (considered as 100%) in order to determine the percentage of compound remaining. Plots of percentage compound remaining were used to determine the intrinsic clearance in the hepatocyte incubations.
Testosterone (1 μM) and Umbelliferone (1 μM) and Caffeine (1 μM) were used as reference compounds, being unstable and stable compounds respectively. If the hepatocyte stability values for these controls are not in the range determined by the historical data, the assay is not validated.

Bounds are passed on as bounds.

Regarding `CC(C)Oc1ccc(-c2nn[nH]n2)c(N2CCN(Cc3nc4ccccc4s3)CC2)c1` [Compound A-51, 2-[[4-[5-isoprop-oxy-2-(2H-tetrazol-5-yl)phenyl]piper-azin-1-yl]methyl]-1,3-benzothiazole], in data set [1], the “Mass retention (%)” value came out at 14% and the “Permeability Papp, Log10 (10^−6 cm/s)” value is −4.2 Log10 (10^−6 cm/s). As to `CCC1CN(Cc2cccnn2)CCN1c1cc(CC(C)C)cc(F)c1-c1nn[nH]n1` (stereo not shown) [Compound A-181, 3-[[3-ethyl-4-[3-fluoro-5-isobutyl-2-(2H-tetrazol-5-yl)phenyl]piperazin-1-yl]methyl]pyridazine], the hepatocyte CLint in data set [2] was found to be 1 µL/min/1e6 cells. Consider `CC(C)Cc1cc(F)c(-c2nn[nH]n2)c(N2CC(C)N(Cc3cccnn3)CC2C)c1` (stereo not shown) [Compound A-183, 3-[[4-[3-fluoro-5-isobutyl-2-(2H-tetrazol-5-yl)phen-yl]-2,5-dimethyl-piperazin-1-yl]-methyl]pyridazine], for which, in data set [2], the hepatocyte CLint was determined as 2.6 µL/min/1e6 cells.

With `CC(C)Oc1ccc(-c2nn[nH]n2)c(N2CCN(Cc3nc4ccccc4c(=O)[nH]3)CC2)c1` [Compound A-32], in data set [1], the “Mass retention (%)” value was found to be 20% and the “Permeability Papp, Log10 (10^−6 cm/s)” value is given as −4.6 Log10 (10^−6 cm/s). As for `CC(C)Oc1ccc(-c2nn[nH]n2)c(N2CCN(Cc3nc4ccccc4n3C)CC2)c1` [Compound A-24, 2-[[4-[5-isopropoxy-2-(2H-tetrazol-5-yl)phenyl]piperazin-1-yl]methyl]-1-methyl-benzimidazole], in data set [1], the “Mass retention (%)” value worked out at 24% and the “Permeability Papp, Log10 (10^−6 cm/s)” value is given as <−7 Log10 (10^−6 cm/s). Take `CCC1CN(c2cc(CC(C)C)cc(F)c2-c2nn[nH]n2)CCN1Cc1cccnn1` (stereo not shown) [Compound A-178, 3-[[2-ethyl-4-[3-fluoro-5-isobutyl-2-(2H-tetrazol-5-yl)phenyl]piperazin-1-yl]methyl]pyridazine]: in data set [2], the hepatocyte CLint was determined as 0.2 µL/min/1e6 cells. `CCCCNC(=O)NS(=O)(=O)c1ccc(C)cc1N1CCN(Cc2nc3ccccc3n2C)CC1` [Compound A-12, 1-butyl-3-[4-methyl-2-[4-[(1-methylbenzimidazol-2-yl)methyl]piperazin-1-yl]phenyl]sulfonyl-urea]: in data set [1], the “Mass retention (%)” value was 7% and the “Permeability Papp, Log10 (10^−6 cm/s)” value is reported as <−7 Log10 (10^−6 cm/s).

On to `CC(C)Cc1cc(F)c(-c2nn[nH]n2)c(N2CCN(Cc3ccccn3)[C@@H](C)C2)c1` [Compound A-217, (2S)-4-[3-fluoro-5-isobutyl-2-(2H-tetrazol-5-yl)phenyl]-2-methyl-1-(2-pyridylmethyl)piperazine], for which the hepatocyte CLint in data set [2] is 8.7 µL/min/1e6 cells.

As to `CC(C)Cc1cc(F)c(-c2nn[nH]n2)c(N2CCN(Cc3cccnn3)[C@@H](C)C2)c1` [Compound A-174, 3-[[(2S)-4-[3-fluoro-5-isobutyl-2-(2H-tetrazol-5-yl)phenyl]-2-methyl-piperazin-1-yl]methyl]pyridazine], the hepatocyte CLint in data set [2] amounted to 10.5 µL/min/1e6 cells. For the same molecule, in data set [1], the “Mass retention (%)” value is reported as 0% and the “Permeability Papp, Log10 (10^−6 cm/s)” value was −5.5 Log10 (10^−6 cm/s). As to `CCCCNC(=O)NS(=O)(=O)c1ccc(C(F)(F)F)cc1N1CCN(Cc2nc3ccccc3n2C)CC1` [Compound A-10, 1-butyl-3-[2-[4-[(1-methylbenzimidazol-2-yl)methyl]piperazin-1-yl]-4-(trifluoromethyl)phenyl]sulfonyl-urea], in data set [1], the “Mass retention (%)” value came to 8% and the “Permeability Papp, Log10 (10^−6 cm/s)” value is listed as <−7 Log10 (10^−6 cm/s). The like results for `CCCCOC(=O)NS(=O)(=O)c1ccc(C(F)(F)F)cc1N1CCN(Cc2nc3ccccc3n2C)CC1` [Compound A-09, butyl N-[2-[4-[(1-methylbenzimidazol-2-yl)methyl]piperazin-1-yl]-4-(trifluoromethyl)phenyl]sulfonylcarbamate] were, in that order, 10% and <−7 Log10 (10^−6 cm/s). As to `CC(C)Cc1ccc(-c2nn[nH]n2)c(N2CCN(Cc3nc4ccccc4n3C)CC2)c1` [Compound A-20, 2-[[4-[5-isobutyl-2-(2H-tetrazol-5-yl)-phenyl]piperazin-1-yl]methyl]-1-meth-yl-benzimidazole], in data set [1], the “Mass retention (%)” value was 28% and the “Permeability Papp, Log10 (10^−6 cm/s)” value is <−7 Log10 (10^−6 cm/s). On to `CC(C)Cc1cc(F)c(-c2nn[nH]n2)c(N2CCN(Cc3cccnn3)C(C)C2)c1` (stereo not shown) [Compound A-173, 3-[[4-[3-fluoro-5-isobutyl-2-(2H-tetrazol-5-yl)phenyl]-2-methyl-piperazin-1-yl]methyl]pyridazine], for which the hepatocyte CLint in data set [2] was found to be 2 µL/min/1e6 cells.
